From patent publication US6046209A (priority 1998, dated 2000)

Experiments:
[1] = system: L1210; assay: Efficacy in mouse tumor model L1210; assay type: in vivo
Experimental: (§1) The efficacy of the compounds of the present invention was also tested in vivo using three well-known mouse tumor models: L1210, Lewis Lung, and Colon Carcinoma 26.

[2] = system: Colon Carcinoma 26; assay: Efficacy in mouse tumor model Colon Carcinoma 26; assay type: in vivo
Experimental: as §1

[3] = system: Lewis Lung; assay: Efficacy in mouse tumor model Lewis Lung; assay type: in vivo
Experimental: as §1

[4] = system: topoisomerase I; mouse tumor models; assay: Overall comparison of topoisomerase I inhibition ability, cytotoxicity and efficacy in mouse tumor models; settings: results of Table I
[5] = system: solid tumor cancers, particularly ovarian cancer and non-small cell lung carcinoma; settings: humans; cited from earlier work
[6] = system: topoisomerase II; settings: cited from earlier work
[7] = in vivo; cited from earlier work

## CC[C@@]1(O)C(=O)OCc2c1cc1n(c2=O)Cc2cc3ccccc3nc2-1 [Camptothecin]
[1]; 12 mg/kg ip
  % Inc. in Lifespan, L1210: 133%
[2]; 4 mg/kg ip
  % Inc. in Lifespan, Colon 26: 50%

## CC[C@@]1(O)C(=O)OCc2c1cc1n(c2=O)Cc2cc3c4c(ccc3nc2-1)OC(CN1CCOCC1)C4 (stereo partly drawn) [Formula III, (8S)-8-ethyl-1,2-dihydro-8-hydroxy-2(4-morpholinylmethyl)-11H-furano[3,2-f]-pyrano[3',4':6,7]indolizino[1,2-b]quinoline-9,12(8H,14H)-dione]
[1]; 42 mg/kg ip
  % Inc. in Lifespan, L1210: 350%
[3]; 22 mg/kg ip
  % Inc. in Lifespan, Lewis Lung: > 225%
[2]; 20 mg/kg sc
  % Inc. in Lifespan, Colon 26: 45%
[4]
  biological activity compared with camptothecin and topotecan: comparable to camptothecin and topotecan

## CC[C@@]1(O)C(=O)OCc2c1cc1n(c2=O)Cc2cc3c4c(ccc3nc2-1)OC(CN(C)C)C4 (stereo partly drawn) [Formula IV, (8S)-2-[(dimethylamino)methyl]-8-ethyl-1,2-dihydro-8-hydroxy-11H-furano[3,2-f]-pyrano[3',4':6,7]indolizino[1,2-b]quinoline-9,12(8H,14H)-dione]
[1]; 15 mg/kg ip
  % Inc. in Lifespan, L1210: 225%
[3]; 9 mg/kg ip
  % Inc. in Lifespan, Lewis Lung: 67%
[2]; 20 mg/kg sc
  % Inc. in Lifespan, Colon 26: 32%
[4]
  biological activity compared with camptothecin and topotecan: comparable to camptothecin and topotecan

## CC[C@@]1(O)C(=O)OCc2c1cc1n(c2=O)Cc2cc3c(CN(C)C)c(O)ccc3nc2-1 [Topotecan, 9-dimethylaminomethyl-10-hydroxycamptothecin]
[1]; 15 mg/kg ip
  % Inc. in Lifespan, L1210: 217%
[3]; 15 mg/kg ip
  % Inc. in Lifespan, Lewis Lung: 106%
[2]; 20 mg/kg sc
  % Inc. in Lifespan, Colon 26: 45%
[5]
  efficacy in clinical tests: efficacy against several solid tumor cancers, particularly ovarian cancer and non-small cell lung carcinoma

## COc1cccc2c1C(=O)c1c(O)c3c(c(O)c1C2=O)C[C@@](O)(C(=O)CO)C[C@@H]3O[C@H]1C[C@H](N)[C@H](O)[C@H](C)O1 [doxorubicin]
[6]
  effect on topoisomerase II: Inhibition of topoisomerase II

## COc1cc([C@@H]2c3cc4c(cc3[C@@H](O[C@@H]3O[C@@H]5CO[C@@H](C)O[C@H]5[C@H](O)[C@H]3O)[C@H]3COC(=O)[C@H]23)OCO4)cc(OC)c1O [etoposide]
[6]
  effect on topoisomerase II: Inhibition of topoisomerase II

## O=C1c2c(O)ccc(O)c2C(=O)c2c(NCCNCCO)ccc(NCCNCCO)c21 [mitoxantrone]
[6]
  effect on topoisomerase II: Inhibition of topoisomerase II

## (S)-10-amino-4-ethyl-4-hydroxy-1H-pyrano[3',4':6,7]indolizino[1,2-b]quinoline-3,14(4H,12H)-dione [CPT-11]
[7]
  toxicity profile: adverse toxicity profile
